The structures appear in SMILES notation. Where only a bound is given, the exact number is not on record here.

The test system of one series is Phytophthora infestans. As to the kind of experiment: whole plant or invertebrate. The class given is in vivo. As to conditions: in Solanum lycopersicum, foliar, read-out: inhibit fungal infestation (percent disease control compared to untreated).
A further series has as its system Plasmopara viticola. As to the kind of experiment: Plasmopara viticola / grape / leaf disc preventative. The class given is in vivo. As to conditions: foliar, grape vine leaf disks, inoculated 1 day after application, assessed 6-8 days after application, read-out: inhibit fungal infestation (percent disease control compared to untreated).
In series [1] the test system is Blumeria qraminis f. sp. tritici (Erysiphe qraminis f. sp. tritici). Put plainly: Blumeria graminis f. sp. tritici / wheat / leaf disc preventative (powdery mildew on wheat). Format: in vivo. To be noted: foliar, wheat leaf segments cv. Kanzler, inoculated 1 day after application, assessed 6-8 days after application, read-out: inhibit fungal infestation (percent disease control compared to untreated).

For series [2], the system named is Phaeosphaeria nodorum (Septoria nodorum). Put plainly: Phaeosphaeria nodorum (Septoria nodorum) / wheat / leaf disc preventative (glume blotch). Format: in vivo. As to conditions: Parastagonospora nodorum, foliar, wheat leaf segments cv. Kanzler, inoculated 2 days after application, assessed 5-7 days after application, read-out: inhibit fungal infestation (percent disease control compared to untreated).

For the next series, the system named is Pythium ultimum. Put plainly: Pythium ultimum / liquid culture (seedling damping off). Format: cell-based. As to conditions: Globisporangium ultimum, liquid culture in PDB, 24° C., 2-3 days after application, read-out: inhibit fungal infestation (inhibition of growth determined photometrically).

Regarding `C#Cc1cnc2c(C)cc(OC(SC)C(=O)NC(C)(C)c3ccccn3)cc2c1` (centres unmarked) [Compound 7], the melting point (as a rule, the temperature, or range, at which the solid turns liquid) stood at 113 °C. In the series with Phytophthora infestans, the inhibition at 200 ppm was no less than 80%. Besides, in the series with Plasmopara viticola, the inhibition at 200 ppm was no less than 80%. Besides, the inhibition at 200 ppm in series [1] was no less than 80%. Besides, in series [2], the inhibition at 200 ppm was no less than 80%. In the series with Pythium ultimum, the inhibition at 200 ppm is no less than 80%.
For `CSC(Oc1ccc2ncc(Br)cc2c1)C(=O)NC(C)(C)c1ccccn1` (centres unmarked) [Compound 8], the melting point came to 105 °C. Also, in the series with Phytophthora infestans, the inhibition at 200 ppm was no less than 80%. Further, in the series on Plasmopara viticola, the inhibition at 200 ppm is no less than 80%. Also, in series [1], the inhibition at 200 ppm is no less than 80%. In series [2], the inhibition at 200 ppm is no less than 80%. Moreover, the inhibition at 200 ppm with Pythium ultimum was no less than 80%.
`CSC(Oc1cc(C)c2ncc(Br)cc2c1)C(=O)NC(C)(C)c1ccccn1` (centres unmarked) [Compound 9] came in with a melting point of 123 °C. Moreover, the inhibition at 200 ppm with Phytophthora infestans is no less than 80%. In the series with Plasmopara viticola, the inhibition at 200 ppm was no less than 80%. In addition, in series [1], the inhibition at 200 ppm is no less than 80%. Besides, in series [2], the inhibition at 200 ppm is no less than 80%. Also, the inhibition at 200 ppm in the series with Pythium ultimum was no less than 80%.
The compound `C#Cc1cnc2c(Cl)cc(OC(SC)C(=O)NC(C)(C)c3ccccn3)cc2c1` (centres unmarked) [Compound 10] registered a melting point of 153 °C. Also, the inhibition at 200 ppm with Phytophthora infestans is no less than 80%. In addition, in the series with Plasmopara viticola, the inhibition at 200 ppm was no less than 80%. The inhibition at 200 ppm in series [1] is no less than 80%. The inhibition at 200 ppm in series [2] is no less than 80%. Further, in the series with Pythium ultimum, the inhibition at 200 ppm was no less than 80%.
As to `C#Cc1cnc2c(F)cc(OC(SC)C(=O)NC(C)(C)c3ccccn3)cc2c1` (centres unmarked) [Compound 11], the melting point is 125 °C. The inhibition at 200 ppm in the series on Phytophthora infestans is no less than 80%. In addition, in the series with Plasmopara viticola, the inhibition at 200 ppm was no less than 80%. Further, the inhibition at 200 ppm in series [1] is no less than 80%. Besides, the inhibition at 200 ppm in series [2] was no less than 80%. Further, in the series on Pythium ultimum, the inhibition at 200 ppm was no less than 80%.
For `C#Cc1cnc2c(Cl)cc(OC(OC)C(=O)NC(C)(C)c3ccccn3)cc2c1` (centres unmarked) [Compound 12], the melting point amounted to 108 °C. Moreover, the inhibition at 200 ppm in the series with Phytophthora infestans was no less than 80%. Moreover, in the series on Plasmopara viticola, the inhibition at 200 ppm was no less than 80%. Also, the inhibition at 200 ppm in series [1] was no less than 80%. Also, the inhibition at 200 ppm in series [2] was no less than 80%. The inhibition at 200 ppm in the series on Pythium ultimum is no less than 80%.
For the compound `C#Cc1cnc2ccc(OC(CC)C(=O)NC(C)(C)c3ccccn3)cc2c1` (centres unmarked) [Compound 13], the melting point was found to be 96 °C. Moreover, in the series with Phytophthora infestans, the inhibition at 200 ppm is no less than 80%. Moreover, the inhibition at 200 ppm with Plasmopara viticola is no less than 80%. Besides, in series [1], the inhibition at 200 ppm was no less than 80%. In series [2], the inhibition at 200 ppm was no less than 80%. The inhibition at 200 ppm with Pythium ultimum is no less than 80%.
Compound `C#Cc1cnc2ccc(OC(SC)C(=O)NC(C)(C)c3cccc(C)n3)cc2c1` (centres unmarked) [Compound 15] showed a melting point of 148 °C. Moreover, in the series with Phytophthora infestans, the inhibition at 200 ppm is no less than 80%. For the same compound, in the series with Plasmopara viticola, the inhibition at 200 ppm is no less than 80%. Moreover, the inhibition at 200 ppm in series [1] was no less than 80%. Also, the inhibition at 200 ppm in series [2] was no less than 80%. Further, in the series on Pythium ultimum, the inhibition at 200 ppm was no less than 80%.
`C#Cc1cnc2ccc(OC(SC)C(=O)NC(C)(C)c3cc(C)ccn3)cc2c1` (centres unmarked) [Compound 18, 2-[(3-ethynyl-6-quinolyl)oxy]-N-[1-methyl-1-(4-methyl-2-pyridyl)ethyl]-2-methylsulfanyl-acetamide] showed a melting point of 63 °C. Besides, in the series on Phytophthora infestans, the inhibition at 200 ppm is no less than 80%. Besides, the inhibition at 200 ppm in the series on Plasmopara viticola is no less than 80%. Besides, the inhibition at 200 ppm in series [1] is no less than 80%. In addition, the inhibition at 200 ppm in series [2] is no less than 80%. For the same compound, in the series with Pythium ultimum, the inhibition at 200 ppm was no less than 80%.
The compound `C#Cc1cnc2ccc(OC(SC)C(=O)NC(C)(CC)c3nc(C)cs3)cc2c1` (centres unmarked) [Compound 20] returned a melting point of 120 °C. The inhibition at 200 ppm in the series with Phytophthora infestans is no less than 80%. In addition, the inhibition at 200 ppm with Plasmopara viticola is no less than 80%. Besides, the inhibition at 200 ppm in series [1] is no less than 80%. In series [2], the inhibition at 200 ppm was no less than 80%. The inhibition at 200 ppm in the series on Pythium ultimum is no less than 80%.
With `C#Cc1cnc2c(C)cc(OC(SC)C(=O)NCc3nc(C)cs3)cc2c1` (centres unmarked) [Compound 24], the melting point was 148 °C. Besides, the inhibition at 200 ppm with Phytophthora infestans was no less than 80%. Moreover, in the series with Plasmopara viticola, the inhibition at 200 ppm was no less than 80%. For the same compound, the inhibition at 200 ppm in series [1] was no less than 80%. For the same compound, the inhibition at 200 ppm in series [2] was no less than 80%. Further, in the series with Pythium ultimum, the inhibition at 200 ppm was no less than 80%.
Compound `C#Cc1cnc2ccc(OC(SC)C(=O)NC(C)(C)c3nccs3)cc2c1` (centres unmarked) [Compound 32] yielded a melting point of 123 °C. Moreover, in the series on Phytophthora infestans, the inhibition at 200 ppm was no less than 80%. Further, in the series on Plasmopara viticola, the inhibition at 200 ppm is no less than 80%. The inhibition at 200 ppm in series [1] was no less than 80%. Further, the inhibition at 200 ppm in series [2] is no less than 80%. The inhibition at 200 ppm in the series with Pythium ultimum is no less than 80%.
The compound `C#Cc1cnc2c(C)cc(OC(SC)C(=O)NC(C)(C)c3nocc3Br)cc2c1` (centres unmarked) [Compound 45, N-[1-(4-bromoisoxazol-3-yl)-1-methyl-ethyl]-2-[(3-ethynyl-8-methyl-6-quinolyl)oxy]-2-methylsulfanyl-acetamide] yielded a melting point of 63 to 65 °C. In the series with Plasmopara viticola, the inhibition at 200 ppm was no less than 80%. In series [1], the inhibition at 200 ppm was no less than 80%. In addition, the inhibition at 200 ppm in series [2] was no less than 80%. In the series with Pythium ultimum, the inhibition at 200 ppm was no less than 80%.
Take `C#Cc1cnc2ccc(OC(SC)C(=O)NC(C)(C)c3nocc3Cl)cc2c1` (centres unmarked) [Compound 51]: the inhibition at 200 ppm (in the series on Phytophthora infestans; in the series with Plasmopara viticola; in series [1]; in series [2]; in the series on Pythium ultimum) was no less than 80% in each case.
In the case of `C#Cc1cnc2ccc(OC(SC)C(=O)NC(C)(C)c3cc(C)on3)cc2c1` (centres unmarked) [Compound 53], the inhibition at 200 ppm (in the series with Phytophthora infestans; in the series on Plasmopara viticola; in series [1]; in series [2]; in the series on Pythium ultimum) was no less than 80% each time.
Regarding `C#Cc1cnc2ccc(OC(SC)C(=O)NC(C)(C)c3cc(Cl)on3)cc2c1` (centres unmarked) [Compound 73], the inhibition at 200 ppm (in the series with Phytophthora infestans; in the series with Plasmopara viticola; in series [1]; in series [2]; in the series on Pythium ultimum) was no less than 80% in each case.
Turning to `C=Cc1cnc2c(C)cc(OC(OC)C(=O)NC(C)(C)c3nc(C)cs3)cc2c1` (centres unmarked) [Compound 135], the melting point stood at 139 °C. For the same compound, the inhibition at 200 ppm in the series on Phytophthora infestans is no less than 80%. In addition, in the series on Plasmopara viticola, the inhibition at 200 ppm is no less than 80%. The inhibition at 200 ppm in series [1] was no less than 80%. Further, the inhibition at 200 ppm in series [2] is no less than 80%. In addition, in the series with Pythium ultimum, the inhibition at 200 ppm is no less than 80%.
